Results from PubChem BioAssay AID212 (DTP/NCI, 2004).
Where “and” joins values, the source holds several entries; their conditions need not be identical. Equal entries are not always repeated. Inconclusive results are not listed.

System: BDF1 mice, colon carcinoma 38 sc, T/C %
Assay: NCI In Vivo Anticancer Drug Screen. Data for tumor model Colon Carcinoma 38 (subcutaneous) in B6D2F1 (BDF1) mice
Conditions: endpoint: median tumor weight (est.), higher = larger tumour
Outline: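 Compound antitumor activity was assessed in mice carrying transplantable tumors. Survival or tumor size was recorded, and each value is the treated-group measurement divided by that of the vehicle-treated control group.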

[1] = dose: 3.12 mg/kg/injection, schedule: Q07DX002 (ip), vehicle: saline with Tween-80
[2] = dose: 6.25 mg/kg/injection, schedule: Q07DX002 (ip), vehicle: saline with Tween-80
[3] = dose: 25.0 mg/kg/injection, schedule: Q07DX002 (ip), vehicle: saline with Tween-80
[4] = dose: 100.0 mg/kg/injection, schedule: Q07DX002 (ip), vehicle: saline with Tween-80
[5] = dose: 200.0 mg/kg/injection, schedule: Q07DX002 (ip), vehicle: saline with Tween-80
[6] = dose: 400.0 mg/kg/injection, schedule: Q07DX002 (ip), vehicle: saline with Tween-80
[7] = dose: 50.0 mg/kg/injection, schedule: Q07DX002 (ip), vehicle: saline with Tween-80
[8] = dose: 12.5 mg/kg/injection, schedule: Q07DX002 (ip), vehicle: Klucel (hydroxypropylcellulose) (HPC)
[9] = dose: 50.0 mg/kg/injection, schedule: Q07DX002 (ip), vehicle: Klucel (hydroxypropylcellulose) (HPC)
[10] = dose: 12.5 mg/kg/injection, schedule: Q07DX002 (ip), vehicle: saline with Tween-80

## CNC(=O)/C=C/C1=CN2C(=O)c3ccc(C)c(O)c3NC(OC)C2C1 (stereo not given)
dose: 0.03 mg/kg/injection, schedule: Q07DX002 (ip), vehicle: saline
  T/C: 119 % of control
dose: 0.06 mg/kg/injection, schedule: Q07DX002 (ip), vehicle: saline
  T/C: 109 % of control
dose: 0.25 mg/kg/injection, schedule: Q07DX002 (ip), vehicle: saline
  T/C: 103 % of control
dose: 0.5 mg/kg/injection, schedule: Q07DX002 (ip), vehicle: saline
  T/C: 122 % of control

## CCCCCCCC(=O)[O][Hg][CH2]C1COC([CH2][Hg][O]C(=O)CCCCCCC)CO1 (stereo not given)
[1]
  T/C: 76 % of control and 97 % of control
[2]
  T/C: 101 % of control
[3]
  T/C: 108 % of control and 105 % of control
[4]
  T/C: 81 % of control

## Nc1ccc2ccc(NS(=O)(=O)N3CCCCC3)cc2c1
[4]
  T/C: 120 % of control
[5]
  T/C: 99 % of control
[6]
  T/C: 124 % of control

## Nc1ccc(C(OC(=O)c2cc3ccccc3c(Cc3c(O)c(C(=O)OC(c4ccc(N)cc4)(c4ccc(N)cc4)c4ccc(N)cc4)cc4ccccc34)c2O)(c2ccc(N)cc2)c2ccc(N)cc2)cc1
dose: 1.56 mg/kg/injection, schedule: Q07DX002 (ip), vehicle: saline with Tween-80
  T/C: 100 % of control
[1]
  T/C: 70 % of control
[2]
  T/C: 92 % of control
[3]
  T/C: 84 % of control and 93 % of control
[7]
  T/C: 114 % of control

## Cn1ccc(=Nc2ccc(NC(=O)c3ccc(N=c4ccn(C)c5ccc([N+](=O)[O-])cc45)cc3[N+](=O)[O-])cc2)cc1
[3]
  T/C: 99 % of control
[7]
  T/C: 60 % of control
[4]
  T/C: 105 % of control
[5]
  T/C: 90 % of control
[6]
  T/C: 29 % of control
dose: 800.0 mg/kg/injection, schedule: Q07DX002 (ip), vehicle: saline with Tween-80
  T/C: 67 % of control

## CC1CCC(n2cnc3c(Cl)ncnc32)O1 (stereo not given)
[8]
  T/C: 76 % of control
[9]
  T/C: 78 % of control and 100 % of control
dose: 62.0 mg/kg/injection, schedule: Q07DX002 (ip), vehicle: Klucel (hydroxypropylcellulose) (HPC)
  T/C: 87 % of control
dose: 100.0 mg/kg/injection, schedule: Q07DX002 (ip), vehicle: Klucel (hydroxypropylcellulose) (HPC)
  T/C: 86 % of control and 95 % of control
dose: 125.0 mg/kg/injection, schedule: Q07DX002 (ip), vehicle: Klucel (hydroxypropylcellulose) (HPC)
  T/C: 115 % of control
dose: 200.0 mg/kg/injection, schedule: Q07DX002 (ip), vehicle: Klucel (hydroxypropylcellulose) (HPC)
  T/C: 109 % of control and 95 % of control
dose: 250.0 mg/kg/injection, schedule: Q07DX002 (ip), vehicle: Klucel (hydroxypropylcellulose) (HPC)
  T/C: 56 % of control

## CO[C@@]12[C@@H]3N[C@@H]3CN1C1=C(C(=O)C(NCC3CCCO3)=C(C)C1=O)[C@@H]2COC(N)=O (stereo not given in full)
dose: 3.0 mg/kg/injection, schedule: Q07DX002 (ip), vehicle: distilled water + Tween-80
  T/C: 93 % of control
dose: 6.0 mg/kg/injection, schedule: Q07DX002 (ip), vehicle: distilled water + Tween-80
  T/C: 69 % of control
dose: 12.0 mg/kg/injection, schedule: Q07DX002 (ip), vehicle: distilled water + Tween-80
  T/C: 34 % of control
dose: 24.0 mg/kg/injection, schedule: Q07DX002 (ip), vehicle: distilled water + Tween-80
  T/C: 28 % of control

## O=[n+]1c2ccccc2n([O-])c2ccccc21.[Cl][Ni][Cl]
[1]
  T/C: 89 % of control
[2]
  T/C: 111 % of control
[10]
  T/C: 89 % of control
[3]
  T/C: 97 % of control

## CCC1CC2CN(CCc3c([nH]c4ccccc34)C(C(=O)OC)(c3cc4c(cc3OC)N(C)C3C(O)(C(=O)OC)C(OC(C)=O)C5(CC)C=CCN6CCC43C65)C2)C1 (stereo not given)
dose: 0.25 mg/kg/injection, schedule: Q07DX002 (ip), vehicle: suspension in saline
  T/C: 162 % of control
dose: 0.5 mg/kg/injection, schedule: Q07DX002 (ip), vehicle: suspension in saline
  T/C: 158 % of control
dose: 1.0 mg/kg/injection, schedule: Q07DX002 (ip), vehicle: suspension in saline
  T/C: 167 % of control

## C=C(C)C(=O)O[C@H]1CC2=C[C@@H](C[C@@]3(C)O[C@@H]3[C@H]3OC(=O)C(=C)[C@@H]31)OC2=O
dose: 3.12 mg/kg/injection, schedule: Q07DX002 (ip), vehicle: Klucel (hydroxypropylcellulose) (HPC)
  T/C: 93 % of control
dose: 6.25 mg/kg/injection, schedule: Q07DX002 (ip), vehicle: Klucel (hydroxypropylcellulose) (HPC)
  T/C: 112 % of control and 105 % of control
[8]
  T/C: 93 % of control
dose: 25.0 mg/kg/injection, schedule: Q07DX002 (ip), vehicle: Klucel (hydroxypropylcellulose) (HPC)
  T/C: 90 % of control and 102 % of control
[9]
  T/C: 113 % of control and 100 % of control

## Oc1cc2ccccc2c(-c2c(O)c(O)cc3ccccc23)c1O
[10]
  T/C: 94 % of control
[3]
  T/C: 119 % of control
[7]
  T/C: 114 % of control
[4]
  T/C: 81 % of control
[5]
  T/C: 64 % of control
[6]
  T/C: 64 % of control

## O=C1C=CC(n2cc(F)c(=O)[nH]c2=O)O1 (stereo not given)
dose: 12.5 mg/kg/injection, schedule: Q07DX002 (ip), vehicle: saline
  T/C: 113 % of control
dose: 100.0 mg/kg/injection, schedule: Q07DX002 (ip), vehicle: saline
  T/C: 54 % of control
dose: 200.0 mg/kg/injection, schedule: Q07DX002 (ip), vehicle: saline
  T/C: 116 % of control

## CCOC(=O)c1c[nH]c2oc(/C=N/N3CC(CN4CCOCC4)OC3=O)cc2c1=O (stereo not given)
dose: 25.0 mg/kg/injection, schedule: Q07DX003 (ip), vehicle: saline
  T/C: 116 % of control and 120 % of control
dose: 100.0 mg/kg/injection, schedule: Q07DX003 (ip), vehicle: saline
  T/C: 93 % of control and 102 % of control
dose: 150.0 mg/kg/injection, schedule: Q07DX002 (ip), vehicle: other
  T/C: 92 % of control
dose: 200.0 mg/kg/injection, schedule: Q07DX003 (ip), vehicle: saline
  T/C: 108 % of control and 106 % of control
dose: 300.0 mg/kg/injection, schedule: Q07DX002 (ip), vehicle: other
  T/C: 59 % of control
dose: 600.0 mg/kg/injection, schedule: Q07DX002 (ip), vehicle: other
  T/C: 59 % of control
dose: 900.0 mg/kg/injection, schedule: Q07DX002 (ip), vehicle: other
  T/C: 34 % of control

## c1ccc2sc(SSN3CC4CCC(CC4)C3)nc2c1
[10]
  T/C: 110 % of control and 85 % of control
[3]
  T/C: 82 % of control and 93 % of control
[4]
  T/C: 63 % of control and 64 % of control
[5]
  T/C: 113 % of control and 115 % of control
